Experimental data reported in PubChem BioAssay (NCI).
Values joined by “and” are separate entries in the source; they are usually repeats but may differ in a detail not shown here. Equal values may be shown once.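 Assay format: 96-well plates, 48-hour exposure. GI50 marks 50% less growth. TGI marks complete inhibition of growth.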

How the values were obtained:
Experiment in all cases: NCI anticancer screen, dose series, 48 h
DLD-1 colon = tested on: DLD-1 colon
ACHN renal = tested on: ACHN renal
M19-MEL melanoma = tested on: M19-MEL melanoma
CAKI-1 renal = tested on: CAKI-1 renal
HCC-2998 colon = tested on: HCC-2998 colon
SK-MEL-2 melanoma = tested on: SK-MEL-2 melanoma
SF-295 CNS = tested on: SF-295 CNS
HL-60(TB) leukemia = tested on: HL-60(TB) leukemia
UACC-257 melanoma = tested on: UACC-257 melanoma
HS 578T breast = tested on: HS 578T breast

Compound | TGI (DLD-1 colon) | TGI (ACHN renal) | TGI (M19-MEL melanoma) | TGI (CAKI-1 renal) | TGI (HCC-2998 colon) | TGI (SK-MEL-2 melanoma) | TGI (SF-295 CNS) | TGI (HL-60(TB) leukemia) | TGI (UACC-257 melanoma) | GI50 (DLD-1 colon) [µM] | GI50 (ACHN renal) [µM] | GI50 (CAKI-1 renal) [µM] | GI50 (HCC-2998 colon) [µM] | GI50 (SK-MEL-2 melanoma) [µM] | GI50 (SF-295 CNS) [µM] | GI50 (HL-60(TB) leukemia) [µM] | GI50 (UACC-257 melanoma) [µM] | GI50 (M19-MEL melanoma) [µM] | GI50 (HS 578T breast) [µM] | TGI (HS 578T breast)
CC(=O)NNc1nc(C)c(C(/C=C/c2ccc(Cl)cc2)=N\NS(=O)(=O)c2ccc(C)cc2)s1 | > 100 µM | > 100 µM | > 100 µM | > 100 µM | > 100 µM | > 100 µM | > 100 µM | > 100 µM | > 100 µM |  |  |  |  |  |  |  |  |  |  | 
CCC(C(=O)[O-])C(=O)[O-].CCC(C(=O)[O-])C(=O)[O-].N.N.NCCCCCN.[Pt+4].[Pt+4] | > 100 µM | > 100 µM |  | > 100 µM | > 100 µM | > 100 µM | > 100 µM | > 100 µM | > 100 µM | > 100 | 72.6 | > 100 | > 100 | > 100 | > 100 | 43.1 | > 100 |  |  | 
Cc1ccc(S(=O)(=O)CNC(=S)CCCC(=S)NCS(=O)(=O)c2ccc(C)cc2)cc1 | > 100 µM |  | > 100 µM | > 100 µM | > 100 µM |  | > 100 µM | > 100 µM | > 100 µM |  |  |  |  |  |  |  |  |  |  | 
CC(=O)OCC1OC(OC2CC3C(C)(C)C(OC(C)=O)CC[C@]3(C)C3CCC45CC4(CC[C@H]5C(C)CC(O)C4OC4(C)C)[C@]23C)C(O)C(O)C1O (stereo partly drawn) | 4.4 µM and 4.77 µM | 7.28 µM and 11.7 µM | 6.5 µM and 6.19 µM | 12.2 µM and 29.9 µM | 2.71 µM and 4.26 µM | 6.17 µM and 14.6 µM | 5.5 µM and 11 µM | 2.09 µM and 3.03 µM | 7.28 µM and 14.7 µM | 2.38 | 3.44 | 15.6 | 2.68 | 4.29 | 3.34 | 0.623 | 4.1 | 2.35 |  | 
CN(C)C(=O)CC(C(=O)O)c1c[nH]c2ccccc12 (stereo not drawn) | > 100 µM | > 100 µM | > 100 µM | > 100 µM | > 100 µM | > 100 µM | > 100 µM | > 100 µM | > 100 µM |  |  |  |  |  |  |  |  |  |  | 
CCOc1ccccc1NC(=O)CCc1nnc2s/c(=C\CCc3ccccc3)c(=O)n12 | > 100 µM | > 100 µM | > 100 µM | > 100 µM | > 100 µM | > 100 µM | > 100 µM | > 100 µM | > 100 µM |  |  |  |  |  |  |  |  |  |  | 
O=C(CC/C(C/C(=N/O)c1ccc(F)cc1)=N/O)N(Cc1ccccc1)Cc1ccccc1 | > 100 µM | > 100 µM | > 100 µM | > 100 µM | > 100 µM | > 100 µM | > 100 µM | > 100 µM | > 100 µM |  |  |  |  |  |  |  |  |  |  | 
NC(=O)N/N=C(\Cc1nc2ccc(C(=O)c3ccccc3)cc2[nH]c1=O)C(=O)Nc1ccc(Br)cc1 | > 100 µM | > 100 µM | > 100 µM | > 100 µM | > 100 µM | > 100 µM | > 100 µM | > 100 µM | > 100 µM |  |  |  |  |  |  |  |  |  |  | 
Cc1ccc(S(=O)(=O)N2CCC3(C(/C=C/c4ccccc4)=Nc4ccccc43)C2c2ccccc2)cc1 (stereo not drawn) | > 100 µM | > 100 µM | > 100 µM | > 100 µM | > 100 µM |  | > 100 µM | > 100 µM | > 100 µM |  |  |  |  |  |  |  |  |  |  | 
COC(=O)C1=C(C(=O)OC)C23C=CC=CC24C(C(=O)OC)=C(C(=O)OC)C4C1C3 (stereo not drawn) | > 100 µM | > 100 µM | > 100 µM |  | > 100 µM | > 100 µM | > 100 µM | > 100 µM | > 100 µM |  |  |  |  |  |  |  |  |  |  | 
C#CCN1CCN(C(=S)N/N=C(\C)c2ccccn2)CC1 | 6.58 µM | 4.41 µM and 6.2 µM |  | 12.8 µM | 4.38 µM | 5.41 µM and 4.64 µM | 7.91 µM and 4.8 µM | 0.00497 µM and 0.0116 µM | 2.72 µM and 2.53 µM | 0.00155 | 0.0578 | 0.785 |  | 2.4 | 2.11 | 0.00195 | 0.00558 |  | 1.94 | 6.34 µM and 6.02 µM
CC1C=C(OC(=O)c2ccccc2)C(=O)C(n2cc(F)c(=O)n(C(=O)c3ccccc3)c2=O)O1 (stereo not drawn) | > 100 µM | > 100 µM | > 100 µM | 81.4 µM |  | > 100 µM | > 100 µM | 50.1 µM | > 100 µM |  |  |  |  |  |  |  |  |  |  | 
CN(C)c1ccc(/C=C2\CNC/C(=C\c3ccc(N(C)C)cc3)C2=O)cc1 | 46.2 µM | 54 µM | 46.8 µM |  | > 100 µM |  | > 100 µM |  | > 100 µM |  |  |  |  |  |  |  |  |  |  | 
Cc1cc(Cc2cc(C)c(NC(=O)C(=O)C3C(=O)NC(=S)NC3=O)c(C(C)C)c2)cc(C(C)C)c1NC(=O)C(=O)C1C(=O)NC(=S)NC1=O | > 100 µM | > 100 µM | > 100 µM | > 100 µM | > 100 µM |  | > 100 µM | > 100 µM | > 100 µM |  |  |  |  |  |  |  |  |  |  | 
Cc1cc(=O)oc2cc(OC(=O)Nc3ccc(Cl)c(Cl)c3)ccc12 |  | 78.1 µM |  | 86.4 µM | 41 µM | 56.1 µM | 74.4 µM | 41.9 µM | 84.2 µM |  |  |  |  |  |  |  |  |  |  | 66.4 µM
N#CC1C(=N)Cc2ccccc2-c2ccccc21 (stereo not drawn) |  | 82.5 µM |  | 24.2 µM | 26 µM | 28.7 µM | 9.36 µM | 16.6 µM | 69.1 µM |  | 12.8 | 3.21 | 9.96 | 12 | 2.21 | 3.23 | 8.33 |  | 5.38 | 65.3 µM
CS(=O)(=O)N1CCN(Cc2cc3nc(-c4cccc5[nH]ncc45)nc(N4CCOCC4)c3s2)CC1 (tested in a mixture with another compound) |  |  |  | 0.462 µM | > 100 µM | 6.67 µM | 0.468 µM | 34 µM | 0.42 µM |  | 0.0638 | 0.0769 | 1.31 | 0.753 | 0.062 | 0.0575 | 0.0608 |  | 0.0496 | 0.612 µM
COc1ccc(NC(=O)C(=O)NNC(=O)c2sc(NNC(C)=O)nc2C)c([N+](=O)[O-])c1 |  | > 100 µM | > 100 µM |  | > 100 µM | > 100 µM | > 100 µM | > 100 µM | > 100 µM |  |  |  |  |  |  |  |  |  |  | 
CC1CCCC(C(O)CC2CC(=O)N(c3ccccc3)C(=O)C2)C1=O (stereo not drawn) | > 100 µM | > 100 µM | > 100 µM | > 100 µM | > 100 µM |  | > 100 µM | > 100 µM | > 100 µM |  |  |  |  |  |  |  |  |  |  | 
O=C1C=CC(=O)C1(Br)Br |  | 17.3 µM |  | 11.4 µM | 31.2 µM | 31.4 µM | 34.1 µM | 49 µM | 30.7 µM |  |  |  |  |  |  |  |  |  |  | 50.1 µM
